We go through 25 compounds from ChEMBL document CHEMBL5532635, “The role of natural anti-parasitic guided development of synthetic drugs for leishmaniasis” (Eur J Med Chem, 2023).

Converted amounts (≈) assume the structure as drawn.

For assay [1], the system named is Leishmania amazonensis. Nature of the assay: Antileishmanial activity against Leishmania amazonensis promastigotes assessed as inhibition of parasite growth. Format: functional, organism-based.
The test system of assay [2] is Leishmania infantum. Kind of assay: Antileishmanial activity Leishmania infantum promastigotes assessed as reduction in parasite growth incubated for 72 hrs by alamar blue assay. Format: functional, organism-based. (Resazurin is reduced to fluorescent resorufin, in cell work by metabolically active cells.)
Assay [3] concerns Leishmania tropica. Nature of the assay: Antileishmanial activity against Leishmania tropica promastigotes incubated for 24 hrs measured by alamar blue staining based fluorescence analysis. Format: functional, organism-based.
Assay [4] deals with Leishmania tropica. Kind of assay: Antileishmanial activity against Leishmania tropica amastigotes incubated for 24 hrs measured by alamar blue staining based fluorescence analysis. Format: functional, organism-based.
Assay [5] relates to Leishmania mexicana. Kind of assay: Antileishmanial activity against Leishmania mexicana intracellular amastigotes infected in J774 macrophages assessed as reduction in parasite viability after 72 hrs by MTT based analysis. Format: functional, organism-based. The conditions noted are these: J774, 72 h.
Assay [6] concerns Leishmania infantum. Kind of assay: Antileishmanial activity against Leishmania infantum promastigotes assessed as reduction in parasite viability measured after 48 hrs by MTT assay. Format: functional, organism-based.
In assay [7] the test system is Leishmania infantum. Kind of assay: Antileishmanial activity against Leishmania infantum assessed as reduction in parasite growth. The class given is functional, organism-based.
Assay [8] has as its system Leishmania major. Nature of the assay: Antileishmanial activity against Leishmania major promastigotes assessed as reduction in parasite growth incubated for 72 hrs by MTT assay. The class given is functional, organism-based. On the technique in general: Formazan colour is commonly taken as a measure of viable cells.
The subject of assay [9] is Leishmania major. Kind of assay: Antileishmanial activity against Leishmania major amastigotes assessed as reduction in parasite growth incubated for 72 hrs by MTT assay. The class given is functional, organism-based.
The subject of assay [10] is Leishmania amazonensis. Kind of assay: Antileishmanial activity against Leishmania amazonensis promastigotes infected in BALB/c mouse assessed as reduction of IgG1 level at 400 mg/kg per day, ip administered for 30 days measured at 10 week by ELISA assay. The class given is functional, organism-based. A general note: ELISA stands for enzyme-linked immunosorbent assay.

Assay [11] deals with Leishmania donovani. Kind of assay: Antileishmanial activity against Leishmania donovani amastigotes assessed as parasite growth inhibition incubated for 72 hrs by MTS assay. The class given is functional, organism-based.
The subject of assay [12] is Leishmania donovani. Kind of assay: Antileishmanial activity against Leishmania donovani promastigotes at 50 uM. The class given is functional.
Assay [13] concerns Leishmania donovani. Nature of the assay: Antileishmanial activity against Leishmania donovani promastigotes at 25 uM. The class given is functional.
Assay [14] deals with Leishmania donovani. Nature of the assay: Antileishmanial activity against Leishmania donovani amastigotes assessed as reduction in microbial growth. The class given is functional, organism-based.
The subject of assay [15] is Leishmania major. Nature of the assay: Antileishmanial activity against Leishmania major promastigotes assessed as parasite growth inhibition incubated for 24 hrs by Alamar blue staining based assay. Format: functional, organism-based.
Assay [16] has as its system Leishmania donovani. Kind of assay: Antileishmanial activity against Leishmania donovani promastigotes assessed as inhibition of parasite growth measured after 24 hrs by Alamar blue based analysis. The class given is functional, organism-based.
In assay [17] the test system is Leishmania donovani. Kind of assay: Antileishmanial activity against Leishmania donovani promastigotes assessed as inhibition of parasite growth incubated for 4 hrs by MTT assay. The class given is functional, organism-based.

For `COC(=O)C1=CCC[C@@H]2[C@@](C)(CCc3ccco3)[C@H](C(=O)O)CC[C@@]12C`, in assay [1], the IC50 was 0.11 µM.
On to `COc1cc2oc(=O)ccc2c(OC/C=C(\C)C/C=C/C(C)(C)OO)c1OC`, for which, in assay [2], the EC50 amounted to 26.2 µM.
On to `Nc1ccc(C(=O)N/N=C2\C(=O)N(CC(O)COc3cc(=O)oc4ccccc34)c3ccccc32)cc1` (configuration not stated), for which the IC50 in assay [3] came to 1.62 µM; in assay [4], 2.85 µM.
In the case of `COc1cc(/C=C/C(=O)c2ccc([N+](=O)[O-])cc2)ccc1OCC=C(C)C`, the IC50 in assay [5] was 8.22 µM.
With `CCOC(=O)c1cc2c([nH]c3ccccc32)c(-c2ccccn2)n1`, in assay [6], the half-maximal effective concentration (EC50) amounted to 3.36 µM.
`COc1ccc(Cn2c(C)cc(O)c(C(=O)Nc3ccc(C)cc3)c2=O)cc1`: the IC50 in [7] stood at 55 µM.
For the compound `CN[C@H]1CCc2cc(OC)c(OC)c(OC)c2-c2ccc(OC)c(=O)cc21` [DEMECOLCINE], the IC50 in assay [8] came out at 0.7 µg/mL (≈ 1.88 µM); in [9] it was 14.8 µg/mL (≈ 39.8 µM).
For `CCOC(=O)c1cc2c([nH]c3ccccc32)c(-c2cn(-c3ccccc3)nn2)n1`, the EC50 in assay [6] worked out at 13.6 µM.
As to `C=C[C@H]1CN2CCc3c([nH]c4ccccc34)[C@@H]2C[C@@H]1/C(=C\OC)C(=O)OC`, the IC50 in [10] is 1.12 µM.
Regarding `C/C1=C\C(=O)OC(C(C)(C)C)CCCC(O)CCCC(O)CCCC(O)CCCC(O)CCCC(O)CCCC(O)CCCC(O)CCCCCC(O)C1` (configuration not stated), the IC50 in assay [11] was 4.67 µM.
On to `COc1cc(/C=C2/Oc3cc(O)ccc3C2=O)cc(OC)c1`, for which the Activity in [12] was 109%; in [13], 106%.
For the compound `NC(=S)N/N=C(/C=C/c1cccnc1)c1cccc(NC(=O)Nc2ccc(Cl)cc2)c1`, in [14], the concentration for half-maximal inhibition (IC50) stood at 3.81 µM.
Turning to `Cc1cc(O)c(C(=O)Nc2ccc(Br)cc2)c(=O)n1C1CC1`, in [7], the IC50 is 55 µM.
For the compound `Cc1cc(O)c(C(=O)Nc2ccccc2)c(=O)n1Cc1ccc(F)cc1`, the IC50 in assay [7] was 55 µM.
For the compound `COc1cc2c(c(OC)c1O)-c1ccc(OC)c(=O)cc1[C@@H](NC(C)=O)CC2` [2-DESMETHYLCOLCHICIN], the 50% inhibitory concentration (IC50) in assay [8] is 0.5 µg/mL (≈ 1.3 µM); in [9], 10.2 µg/mL (≈ 26.5 µM).
Regarding `CC[C@H]1CN2CCc3c([nH]c4ccccc34)[C@@H]2C[C@@H]1/C(=C\OC)C(=O)OC`, the IC50 in assay [10] was found to be 1.65 µM.
Consider `COc1c(O[C@@H]2O[C@H](CO)[C@@H](O)[C@H](O)[C@H]2O)cc2c(c1OC)-c1ccc(OC)c(=O)cc1[C@@H](NC(C)=O)CC2`, for which the values for the concentration for half-maximal inhibition (IC50) in assay [8] and in [9] were 0.2 µg/mL (≈ 0.365 µM) and 4 µg/mL (≈ 7.31 µM), respectively.
`COc1cc2c(c(OC)c1OC)-c1ccc(OC)c(=O)cc1[C@@H](NC(C)=O)CC2` [COLCHICINE]: the IC50 in assay [8] stood at 0.5 µg/mL (≈ 1.25 µM); in assay [9] it was 10.2 µg/mL (≈ 25.5 µM).
As to `CCOC(=O)c1cc2c([nH]c3ccccc32)c(-c2cc3ccccc3n3nnnc23)n1`, the EC50 in [6] is 10.2 µM.
Consider `C[C@@H]1CC[C@@]2(C)C(C(=O)O)=CCC[C@@H]2[C@@]1(C)CCc1ccoc1`, for which the IC50 in [15] and in assay [16] was 10 µM each time.
With `COc1cc2c(c(OC)c1OC)-c1ccc(OC)c(=O)cc1[C@@H](NC=O)CC2`, the IC50 in [9] is 10.2 µg/mL (≈ 26.5 µM).
Take `CC[C@@H]1CN2CCc3c([nH]c4ccccc34)[C@@H]2C[C@@H]1/C(=C\OC)C(=O)OC` [CORYNANRHEIDINE]: the IC50 in assay [10] worked out at 2.81 µM.
With `C/C(=C\COc1cc(O)cc2oc(=O)ccc12)C/C=C/C(C)(C)OO`, the EC50 in assay [2] stood at 20.2 µM.
For `O=c1c2ccccc2nc(/C=C/c2ccc([N+](=O)[O-])cc2)n1-c1ccccc1`, the IC50 in assay [17] worked out at 0.021 µM.
For `COc1cc(/C=C/C(=O)c2cccc([N+](=O)[O-])c2)ccc1OCC=C(C)C`, the IC50 in assay [5] stood at 4.57 µM.

By IC50 is commonly meant the concentration that gives 50% inhibition. For orientation: EC50 means the concentration that produces a half-maximal response.
